System: progenitor stem cells in the subgranular zone (SGZ) of the hippocampus
Assay: BrdU immunostaining, cell proliferation in hippocampal SGZ after chronic antidepressant
Assay type: in vivo, rat
Settings: P<0.01; for number of proliferating (BrdU-positive) cells in the SGZ compared with saline-treated control rats: FIG. 1A, chronic administration; for increase in the proliferation rate of progenitor stem cells in the SGZ: versus saline controls, 2 week systemic administration, BrdU twice a day for 4 days, n=5
Method: Antidepressant treatment and BrdU dosing. Dosing of adult male Sprague Dawley rats was performed as described above for 14 days (n=10 rats per group). To evaluate the effect of chronic antidepressant treatment on proliferation of progenitor stem cells, 24 hours after the last antidepressant injection, rats were administered BrdU (Sigma, St. Louis, Mo.) (50 mg/kg rig ip injection twice a day) for 4 days prior to euthanesia. To evaluate the effect of chronic antidepressant treatment on survival of progenitor stem cells, a sub-group of rats were allowed to live for 4 weeks after BrdU injection. All rats were perfused through the ascending aorta with 50 ml of 0.9% saline, followed by 400 ml of freshly prepared 4% paraformaldehyde in PBS (pH 7.5). After 30-60 minutes post-perfusion, rat brains were removed and postfixed in 4% paraformaldehyde in PBS overnight, followed by immersion in 30% sucrose/PBS solution for 48-72 hours at 4° C. Brains were rapidly frozen on dry-ice and stored at −80° C. Brain sectioning and staining for BrdU immunoreactivity were performed as previously described by Malberg et al. (2000). Briefly, serial coronal sections of each brain were cut (35 μm thickness) through the entire hippocampus (stereotaxic plates 26-40 according to Paxinos, Watson and Emson, 1980) using a freezing microtome. Every sixth section throughout the hippocampus was processed for BrdU staining. Free-floating sections were maintained in 100 mM PBS (about 100 sections per brain). DNA denaturation of the sections was performed as follows: sections were treated with 50% formamide/50% 2×SSC (0.3 M NaCl/0.03 M sodium citrate) for 2 hours at 65° C., rinsed in PBS (2 times for 5 minutes at room temperature), incubated with 2 N HCl for 30 minutes, followed by 0.1 M boric acid buffer (pH 8.5) for 10 minutes and a final rinse in PBS. For BrdU immunostaining, sections were incubated with 3% H2O2 in PBS for 30 minutes, rinsed in PBS and blocked with 3% normal horse serum in 0.01% TritonX-100 for 30 minutes. […] All BrdU labeled cells in the subgranular zone (SGZ) were counted in each section by an experimenter blinded to the study code. […] The total number of BrdU labeled cells per section were determined and multiplied by 12 to obtain the total number of cells per dentate gyrus. […]
In vivo studies were performed to measure the effects of antidepressant drug treatment on adult hippocampal neurogenesis by immunological methods. […] The BrdU immunostaining and quantitative results indicated a significant increase (˜33%) in the proliferation rate of progenitor stem cells in the subgranular zone (SGZ) of the hippocampus for both venlafaxine (P<0.01; n=5) and fluoxetine (P<0.01; n=5) versus saline controls. […]

Row | SMILES | number of proliferating (BrdU-positive) cells in the SGZ compared with saline-treated control rats | increase in the proliferation rate of progenitor stem cells in the SGZ
1 | CNCCC(Oc1ccc(C(F)(F)F)cc1)c1ccccc1 (stereo not shown) [Fluoxetine, fluoxetine] | increased the number of proliferating cells in the SGZ | ~33%
2 | COc1ccc(C(CN(C)C)C2(O)CCCCC2)cc1 (stereo not shown) [Venlafaxine, venlafaxine] | increased the number of proliferating cells in the SGZ | ~33%
